Where two headings read alike, the source gives them in different places. Numbered stars: 1 amine (or outer) side, 2 acyl side, 3 side chain; on linkers, the order of the positions; unused ones are H or OH. Bridge positions count the residues as written; N and C are the ends. Square brackets hold non-standard residues; d marks the D form. Peptide text beside a SMILES is read from it. * marks the point of attachment. DOTA = O=C(O)CN1CCN(CC(=O)O)CCN(CC(=O)*)CCN(CC(=O)O)CC1; Phe(3-Cl) = N[C@@H](Cc1cccc(Cl)c1)C(=O)O; Phe(4-Cl) = N[C@@H](Cc1ccc(Cl)cc1)C(=O)O; Phe(4-Me) = Cc1ccc(C[C@H](N)C(=O)O)cc1; Arg(Me) = CNC(=N)NCCC[C@H](N)C(=O)O; X4 = O=C(CN1CCC(N[*:1])CC1)[*:2]; 2Pal = N[C@@H](Cc1ccccn1)C(=O)O; X1 = O=C(CC1CCN([*:1])CC1)[*:2]; Cit = NC(=O)NCCC[C@H](N)C(=O)O; Lys(Me) = CNCCCC[C@H](N)C(=O)O; Tle = CC(C)(C)[C@H](N)C(=O)O; αMeS = C[C@](N)(CO)C(=O)O; Nle = CCCC[C@H](N)C(=O)O; Deg = CCC(N)(CC)C(=O)O; Aib = CC(C)(N)C(=O)O; CO = O=C([*:1])[*:2]; NHBu = CCCCN*
Columns and labels:
[1] = target: T1, PSMA-expressing C4-2 cells (Homo sapiens, UniProt Q04609); experiment: FACS binding assay (competition with 50 nM PSM-0183); conditions: read-out: pIC50 [C4-2] CAT (converted)
T1 construct: PSMA-expressing C4-2 cells (ATCC, Cat. No. CRL-3314) were cultured in RPMI-1640; host or cells: C4-2 cells
T1 sequence (Q04609 whole entry): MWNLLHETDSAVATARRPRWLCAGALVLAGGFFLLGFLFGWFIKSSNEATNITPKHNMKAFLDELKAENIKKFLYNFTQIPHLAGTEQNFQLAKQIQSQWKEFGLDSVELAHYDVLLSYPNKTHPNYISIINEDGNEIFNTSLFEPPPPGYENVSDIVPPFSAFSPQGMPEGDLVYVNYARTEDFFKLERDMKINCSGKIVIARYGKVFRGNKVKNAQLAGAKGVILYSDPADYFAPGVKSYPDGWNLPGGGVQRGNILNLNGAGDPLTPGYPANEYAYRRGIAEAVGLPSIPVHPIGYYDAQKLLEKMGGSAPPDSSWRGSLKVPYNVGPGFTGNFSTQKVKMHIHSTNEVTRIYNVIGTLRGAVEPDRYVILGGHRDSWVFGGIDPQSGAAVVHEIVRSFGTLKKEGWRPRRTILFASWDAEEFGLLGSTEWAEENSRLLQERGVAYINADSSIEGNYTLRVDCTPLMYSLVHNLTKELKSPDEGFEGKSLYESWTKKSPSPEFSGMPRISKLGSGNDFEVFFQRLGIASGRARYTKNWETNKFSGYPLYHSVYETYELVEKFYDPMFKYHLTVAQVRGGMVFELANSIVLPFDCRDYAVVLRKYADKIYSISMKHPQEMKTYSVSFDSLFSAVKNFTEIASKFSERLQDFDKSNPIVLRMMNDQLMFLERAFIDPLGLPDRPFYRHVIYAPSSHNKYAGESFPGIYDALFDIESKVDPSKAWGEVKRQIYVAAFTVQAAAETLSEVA
Procedure, shortened: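 Competition format: fluorescent tracer PSM-0183 (50 nM) displaced from PSMA on C4-2 cells by a test compound titration over 1 h at 4 °C. Bound tracer was quantified as flow-cytometric AF488 median fluorescence after washing. Four-parameter logistic fits of MFI data gave IC50 and pIC50.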

[2] = target: T2, Fc-fusion protein of human PSMA (hPSMA-Fc) (Homo sapiens, UniProt Q04609); experiment: Surface plasmon resonance assay (Biacore T200, single cycle kinetic); type: binding; conditions: hPSMA-Fc, 25° C., read-out: pKD CAT (converted)
T2 construct: purchased Acro Biosystems PSA-H5264
T2 sequence (Q04609 44-750 limits assumed): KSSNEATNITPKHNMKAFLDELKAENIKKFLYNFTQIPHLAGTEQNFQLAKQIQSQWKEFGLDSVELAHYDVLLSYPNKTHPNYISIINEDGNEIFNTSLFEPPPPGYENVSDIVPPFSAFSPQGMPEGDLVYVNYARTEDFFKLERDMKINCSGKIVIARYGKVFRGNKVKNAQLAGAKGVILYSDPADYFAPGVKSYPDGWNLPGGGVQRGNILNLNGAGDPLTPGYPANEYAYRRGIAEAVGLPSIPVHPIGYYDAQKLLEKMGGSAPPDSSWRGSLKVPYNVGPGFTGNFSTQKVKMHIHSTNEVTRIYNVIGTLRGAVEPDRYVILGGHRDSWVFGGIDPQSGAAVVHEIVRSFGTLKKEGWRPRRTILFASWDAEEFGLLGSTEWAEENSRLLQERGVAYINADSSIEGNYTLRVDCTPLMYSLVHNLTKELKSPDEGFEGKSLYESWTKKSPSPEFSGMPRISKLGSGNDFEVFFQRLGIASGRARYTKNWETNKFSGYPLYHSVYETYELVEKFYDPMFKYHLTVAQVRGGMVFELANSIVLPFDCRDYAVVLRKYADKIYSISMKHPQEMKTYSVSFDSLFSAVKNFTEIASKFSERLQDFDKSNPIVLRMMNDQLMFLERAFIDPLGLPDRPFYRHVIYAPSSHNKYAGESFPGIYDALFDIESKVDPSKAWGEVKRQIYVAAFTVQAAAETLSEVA
Procedure, shortened: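 KD, expressed as pKD, came from 1:1 Langmuir fits of reference- and buffer-blank-subtracted SPR data. The runs were single-cycle kinetics at 25° C in HBST/0.1% DMSO over human PSMA-Fc, captured to ~1000 RU on a peptide-coated CM5 surface and regenerated with 10 mM glycine pH 1.5.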

[3] = pIC50 category of FACS binding, C4-2 cells
[4] = pKD category for PSMA SPR activity assay
[5] = FACS binding, C4-2 cells, competition with 50 nM PSM-0183, category
[6] = SPR, single cycle kinetic, category

IC50 [1, 3] [µM]	Kd [2, 4] [µM]	Compound	other results
< 0.2	< 0.0126	CCC1(CC)NC(=O)[C@H](CCCNC(=N)N)NC(=O)[C@H](CCCCN)NC(=O)[C@@H](NC(=O)[C@H](Cc2ccccc2)NC(=O)C(C)(C)NC(=O)[C@@H](NC(C)=O)[C@@H](C)O)CSSC[C@@H](C(=O)N[C@H](C(=O)N[C@H](C(N)=O)[C@@H](C)O)C(C)(C)C)NC(=O)[C@H](CC(N)=O)NC1=O [PSM-0375, Ac-Thr-Aib-Phe-[Cys-Lys-Arg-Deg-Asn-Cys]-Tle-Thr-NH2] (Ac-T[Aib]FCKR[Deg]NC[Tle]T-NH2; disulfide 4-9)	–
< 0.2	< 0.0126	CC(=O)N[C@H](C(=O)NC(C)(C)C(=O)N[C@@H](Cc1ccc(C)cc1)C(=O)N[C@H]1CSSC[C@@H](C(=O)N[C@H](C(=O)N[C@H](C(N)=O)[C@@H](C)O)C(C)(C)C)NC(=O)[C@H](CC(N)=O)NC(=O)C(C)(C)NC(=O)[C@H](CCCNC(=N)N)NC(=O)[C@H](CCCCN)NC1=O)[C@@H](C)O [PSM-0372, Ac-Thr-Aib-Pmf-[Cys-Lys-Arg-Aib-Asn-Cys]-Tle-Thr-NH2] (Ac-T[Aib][Phe(4-Me)]CKR[Aib]NC[Tle]T-NH2; disulfide 4-9)	–

More lines, now with the values behind:

Compound	IC50 [1, 3] [µM]	Kd [2, 4] [µM]	other results
CNCCCC[C@@H]1NC(=O)[C@@H](NC(=O)[C@H](Cc2ccccn2)NC(=O)C(C)(C)NC(=O)[C@@H](NC(=O)CC2CCN(C(=O)CN3CCN(CC(=O)O)CCN(CC(=O)O)CCN(CC(=O)O)CC3)CC2)[C@@H](C)O)CSSC[C@@H](C(=O)N[C@H](C(N)=O)C(C)(C)C)NC(=O)[C@H](CC(N)=O)NC(=O)C(C)(C)NC(=O)[C@H](CCCNC(=N)NC)NC1=O [PSM-0409, DOTA-Cmp-Thr-Aib-Opa-[Cys-Lys(Me)-Arg(Me)-Aib-Asn-Cys]-Tle-NH2] ({DOTA}-[X1]T[Aib][2Pal]C[Lys(Me)][Arg(Me)][Aib]NC[Tle]-NH2; disulfide 5-10)	0.2 to 1.26	0.126 to 0.501	–
C[C@@H](O)[C@H](NC(=O)[C@@H](NC(=O)[C@@H]1CSSC[C@H](NC(=O)[C@H](Cc2ccc(Cl)cc2)NC(=O)C(C)(C)NC(=O)CN2CCC(NC(=O)CN3CCN(CC(=O)O)CCN(CC(=O)O)CCN(CC(=O)O)CC3)CC2)C(=O)N[C@@H](CCCCN)C(=O)N[C@@H](CCCNC(=N)N)C(=O)NC(C)(C)C(=O)N[C@@H](CC(N)=O)C(=O)N1)C(C)(C)C)C(N)=O [PSM-0263] ({DOTA}-[X4][Aib][Phe(4-Cl)]CKR[Aib]NC[Tle]T-NH2; disulfide 4-9)	–	–	IC50 [1, 5]: < 0.2 µM; Kd [2, 6]: < 0.0126 µM
CCCCNC(=O)N[C@H](C(=O)NC(C)(C)C(=O)N[C@@H](Cc1cccc(Cl)c1)C(=O)N[C@H]1CSSC[C@@H](C(=O)N[C@H](C(=O)N[C@H](C(=O)N2CCC(CC(=O)N[C@H](CCCCNC(=O)CN3CCN(CC(=O)O)CCN(CC(=O)O)CCN(CC(=O)O)CC3)C(N)=O)CC2)[C@@H](C)O)C(C)(C)C)NC(=O)[C@H](CC(N)=O)NC(=O)C(C)(C)NC(=O)[C@H](CCCNC(N)=O)NC(=O)[C@H](CCCCN)NC1=O)[C@@H](C)O [PSM-0207, nBuCAyl-Thr-Aib-Mcf-[Cys-Lys-Cit-Aib-Asn-Cys]-Tle-Thr-Cmp-lys(DOTA)-NH2] ({NHBu-CO}-T[Aib][Phe(3-Cl)]CK[Cit][Aib]NC[Tle]T[X1][dK](DOTA)-NH2; disulfide 4-9)	–	–	IC50 [1, 5]: < 0.2 µM; Kd [2, 6]: 0.0126 to 0.126 µM
C[C@@H](O)[C@H](NC(=O)[C@@H](NC(=O)[C@@H]1CSSC[C@H](NC(=O)[C@H](Cc2ccc(Cl)cc2)NC(=O)C(C)(C)NC(=O)[C@@H](NC(=O)CC2CCN(C(=O)CN3CCN(CC(=O)O)CCN(CC(=O)O)CCN(CC(=O)O)CC3)CC2)[C@@H](C)O)C(=O)N[C@@H](CCCCN)C(=O)N[C@@H](CCCNC(=N)N)C(=O)N[C@@](C)(CO)C(=O)N[C@@H](CC(N)=O)C(=O)N1)C(C)(C)C)C(N)=O [PSM-0382, DOTA-Cmp-Thr-Aib-Pcf-[Cys-Lys-Arg-Ams-Asn-Cys]-Tle-Thr-NH2] ({DOTA}-[X1]T[Aib][Phe(4-Cl)]CKR[αMeS]NC[Tle]T-NH2; disulfide 5-10)	< 0.2	< 0.0126	–
CCCC[C@H](NC(=O)[C@@H]1CSSC[C@H](NC(=O)[C@H](Cc2ccccc2)NC(=O)[C@H](C)NC(=O)[C@@H](NC(C)=O)[C@@H](C)O)C(=O)N[C@@H](CCCCN)C(=O)N[C@@H](CCCNC(=N)N)C(=O)N[C@@H](C)C(=O)N2CCC[C@H]2C(=O)N1)C(=O)N[C@H](C(=O)N[C@@H](CC(=O)O)C(N)=O)[C@@H](C)O [PSM-0286, Ac-Thr-Ala-Phe-[Cys-Lys-Arg-Ala-Pro-Cys]-Nle-Thr-Asp-NH2] (Ac-TAFCKRAPC[Nle]TD-NH2; disulfide 4-9)	–	–	IC50 ([1]; FACS binding, PSMA-expressing C4-2 cells, pIC50 category): > 3.16 µM; Kd ([2]; PSMA SPR assay, pKD category): > 0.501 µM

Source: patent US20260083865A1, “PROSTATE SPECIFIC MEMBRANE ANTIGEN (PSMA) LIGANDS AND USE THEREOF” (priority 2022, published 2026)
